Test results taken from patent US20230148005A1, “MACROCYCLIC COMPOUNDS AND USES THEREOF” (THESEUS PHARMACEUTICALS, INC., priority 2020, published 2023).
pIC50: −log10 of the molar value.

Experiments:
Ba/F3 EGFR-Del19/T790M = Ba/F3 EGFR-Del19/T790M (Homo sapiens, UniProt P00533, T790M, cells depend on it, form not given); assay: Ba/F3 viability assay (CellTiter-Glo), DT; type: cell-based; settings: anti-proliferation, read-out: BaF3 DT IC50
Excerpt: (§1) Inhibition of cell proliferation can be studied using Ba/F3 viability assays, including the Promega CellTiter-Glo cell viability assay. This assay can be used to study the effect of compounds described herein in the following assays: (1) Ba/F3 Parental; (2) Ba/F3 EGFR-Del19/T790M; (3); Ba/F3 EGFR-Del19/C797S; and (4) Ba/F3 EGFR-Del19/T790M/C797S.

[1] = molecular target: Ba/F3 EGFR-Del19/T790M/C797S (Homo sapiens, UniProt P00533, T790M/C797S, cells depend on it, form not given); assay: Ba/F3 viability assay (CellTiter-Glo), DTC; type: cell-based; settings: anti-proliferation, read-out: BaF3 DTC IC50
Sequence of Ba/F3 EGFR-Del19/T790M/C797S (P00533 with tags, fused parts or gaps DEL746-750/T790M/C797S, form open): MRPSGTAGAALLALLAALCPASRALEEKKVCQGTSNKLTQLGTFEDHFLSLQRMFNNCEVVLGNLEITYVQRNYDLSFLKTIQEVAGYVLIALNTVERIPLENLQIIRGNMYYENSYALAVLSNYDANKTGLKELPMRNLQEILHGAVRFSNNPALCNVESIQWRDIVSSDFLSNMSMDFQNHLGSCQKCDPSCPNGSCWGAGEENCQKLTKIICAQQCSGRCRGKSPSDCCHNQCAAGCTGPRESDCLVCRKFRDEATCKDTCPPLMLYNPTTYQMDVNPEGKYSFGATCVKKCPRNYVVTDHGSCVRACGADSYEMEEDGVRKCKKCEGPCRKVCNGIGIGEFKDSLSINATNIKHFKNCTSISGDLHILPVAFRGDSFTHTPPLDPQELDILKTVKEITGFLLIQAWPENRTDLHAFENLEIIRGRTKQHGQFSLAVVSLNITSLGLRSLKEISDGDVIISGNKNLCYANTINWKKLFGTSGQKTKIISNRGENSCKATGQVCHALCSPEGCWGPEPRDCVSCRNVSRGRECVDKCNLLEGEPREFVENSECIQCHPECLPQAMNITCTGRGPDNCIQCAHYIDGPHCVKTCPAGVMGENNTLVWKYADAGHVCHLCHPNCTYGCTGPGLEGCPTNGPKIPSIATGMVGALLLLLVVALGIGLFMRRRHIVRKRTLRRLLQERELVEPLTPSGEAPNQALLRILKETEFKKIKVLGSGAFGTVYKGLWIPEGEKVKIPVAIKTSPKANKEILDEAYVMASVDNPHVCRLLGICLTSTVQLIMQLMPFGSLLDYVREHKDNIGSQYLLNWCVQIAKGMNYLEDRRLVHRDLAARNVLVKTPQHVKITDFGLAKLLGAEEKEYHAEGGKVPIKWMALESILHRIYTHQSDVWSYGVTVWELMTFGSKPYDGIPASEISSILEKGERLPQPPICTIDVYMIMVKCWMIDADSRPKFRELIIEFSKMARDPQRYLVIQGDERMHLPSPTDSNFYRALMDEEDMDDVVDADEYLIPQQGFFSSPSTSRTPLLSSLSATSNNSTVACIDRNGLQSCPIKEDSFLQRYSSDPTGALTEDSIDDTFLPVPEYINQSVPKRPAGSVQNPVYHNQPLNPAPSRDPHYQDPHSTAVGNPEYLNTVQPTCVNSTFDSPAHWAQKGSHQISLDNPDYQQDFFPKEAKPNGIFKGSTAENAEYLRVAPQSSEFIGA
Excerpt: as §1

Ba/F3 EGFR-Del19/C797S = Ba/F3 EGFR-Del19/C797S (Homo sapiens, UniProt P00533, C797S, cells depend on it, form not given); assay: Ba/F3 viability assay (CellTiter-Glo), DC; type: cell-based; settings: anti-proliferation, read-out: BaF3 DC IC50
Sequence of Ba/F3 EGFR-Del19/C797S (P00533 with tags, fused parts or gaps DEL746-750/C797S, form open): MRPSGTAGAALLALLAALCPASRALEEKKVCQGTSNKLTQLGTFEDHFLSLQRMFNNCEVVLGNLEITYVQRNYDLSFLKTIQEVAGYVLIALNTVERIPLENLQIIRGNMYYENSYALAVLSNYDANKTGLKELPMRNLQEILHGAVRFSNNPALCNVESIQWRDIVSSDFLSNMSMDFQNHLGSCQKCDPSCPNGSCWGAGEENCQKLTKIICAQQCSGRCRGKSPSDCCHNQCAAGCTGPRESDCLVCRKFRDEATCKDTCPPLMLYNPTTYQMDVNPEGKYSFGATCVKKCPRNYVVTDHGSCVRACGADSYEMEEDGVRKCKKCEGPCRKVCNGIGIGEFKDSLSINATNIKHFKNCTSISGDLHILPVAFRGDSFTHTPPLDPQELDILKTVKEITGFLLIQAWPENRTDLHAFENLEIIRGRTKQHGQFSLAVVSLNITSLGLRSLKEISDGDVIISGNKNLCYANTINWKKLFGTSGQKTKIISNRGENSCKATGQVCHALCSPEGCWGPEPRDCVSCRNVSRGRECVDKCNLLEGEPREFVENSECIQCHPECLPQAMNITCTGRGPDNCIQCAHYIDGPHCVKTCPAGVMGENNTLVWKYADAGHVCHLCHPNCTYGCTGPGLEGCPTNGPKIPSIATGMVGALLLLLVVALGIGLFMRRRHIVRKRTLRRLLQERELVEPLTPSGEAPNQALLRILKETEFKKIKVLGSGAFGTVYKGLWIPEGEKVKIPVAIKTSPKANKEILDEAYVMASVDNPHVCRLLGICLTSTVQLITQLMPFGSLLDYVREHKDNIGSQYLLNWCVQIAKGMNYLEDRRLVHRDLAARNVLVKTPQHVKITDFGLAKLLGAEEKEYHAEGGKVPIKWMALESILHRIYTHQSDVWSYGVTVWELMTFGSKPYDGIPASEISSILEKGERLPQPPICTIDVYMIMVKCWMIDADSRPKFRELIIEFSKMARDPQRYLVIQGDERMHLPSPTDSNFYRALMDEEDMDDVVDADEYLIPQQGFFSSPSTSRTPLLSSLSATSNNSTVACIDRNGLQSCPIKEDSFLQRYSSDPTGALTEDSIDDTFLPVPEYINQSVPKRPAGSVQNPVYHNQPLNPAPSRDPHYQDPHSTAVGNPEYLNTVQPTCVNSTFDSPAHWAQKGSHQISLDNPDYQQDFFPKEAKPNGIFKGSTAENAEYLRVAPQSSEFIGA
Excerpt: as §1

EGFR^L858R = EGFR^L858R (Homo sapiens, UniProt P00533, L858R); assay: in vitro kinase assay (HTRF KinEASE-TK kit), L; type: biochemical; settings: kinase inhibition
Excerpt: (§2) Assays using an in vitro kinase assay kit (HTRF KinEASE-TK kit) can be used to study the inhibitory activity of compounds described herein with respect to EGFR mutants such as EGFR^L858R, EGFR^L58R/T790M, and EGFR^L858R/T790M/C^797S.

EGFR^L58R/T790M = EGFR^L58R/T790M (Homo sapiens, UniProt P00533, L858R/T790M); assay: in vitro kinase assay (HTRF KinEASE-TK kit), LT; type: biochemical; settings: kinase inhibition
Sequence of EGFR^L58R/T790M (P00533 25-1210 T790M/L858R): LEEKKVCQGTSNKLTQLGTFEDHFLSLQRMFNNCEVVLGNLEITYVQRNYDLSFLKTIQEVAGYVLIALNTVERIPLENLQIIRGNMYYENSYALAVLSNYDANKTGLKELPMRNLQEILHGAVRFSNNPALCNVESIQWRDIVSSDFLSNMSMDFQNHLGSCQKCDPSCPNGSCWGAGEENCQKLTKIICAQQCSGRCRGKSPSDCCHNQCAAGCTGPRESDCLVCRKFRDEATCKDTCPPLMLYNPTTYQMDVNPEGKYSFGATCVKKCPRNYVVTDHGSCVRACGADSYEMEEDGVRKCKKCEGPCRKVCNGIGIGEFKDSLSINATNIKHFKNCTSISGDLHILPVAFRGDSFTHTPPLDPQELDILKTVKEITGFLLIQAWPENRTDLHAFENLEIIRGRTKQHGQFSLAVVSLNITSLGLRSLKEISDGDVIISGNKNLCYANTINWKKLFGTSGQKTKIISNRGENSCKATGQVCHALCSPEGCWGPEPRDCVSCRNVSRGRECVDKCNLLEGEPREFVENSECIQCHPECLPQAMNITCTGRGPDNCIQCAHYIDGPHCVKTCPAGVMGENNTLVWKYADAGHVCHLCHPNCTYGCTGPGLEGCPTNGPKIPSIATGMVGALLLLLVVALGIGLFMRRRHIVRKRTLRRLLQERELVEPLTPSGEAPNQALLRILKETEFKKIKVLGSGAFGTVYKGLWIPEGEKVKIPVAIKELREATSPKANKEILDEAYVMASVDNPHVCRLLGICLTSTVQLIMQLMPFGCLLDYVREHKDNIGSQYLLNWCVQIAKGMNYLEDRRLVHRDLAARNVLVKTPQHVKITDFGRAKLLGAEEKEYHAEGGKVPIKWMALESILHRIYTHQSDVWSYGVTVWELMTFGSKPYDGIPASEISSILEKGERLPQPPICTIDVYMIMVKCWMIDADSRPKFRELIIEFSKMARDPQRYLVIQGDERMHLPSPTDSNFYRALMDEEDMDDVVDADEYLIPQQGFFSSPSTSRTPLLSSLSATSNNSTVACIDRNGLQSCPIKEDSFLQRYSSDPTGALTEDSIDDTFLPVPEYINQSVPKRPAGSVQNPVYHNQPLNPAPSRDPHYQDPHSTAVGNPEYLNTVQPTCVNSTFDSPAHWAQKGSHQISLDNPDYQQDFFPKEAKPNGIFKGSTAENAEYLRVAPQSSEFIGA
Excerpt: as §2

EGFR^L858R/T790M/C^797S = EGFR^L858R/T790M/C^797S (Homo sapiens, UniProt P00533, C797S/L858R/T790M); assay: in vitro kinase assay (HTRF KinEASE-TK kit), LTC; type: biochemical; settings: kinase inhibition
Sequence of EGFR^L858R/T790M/C^797S (P00533 25-1210 T790M/C797S/L858R): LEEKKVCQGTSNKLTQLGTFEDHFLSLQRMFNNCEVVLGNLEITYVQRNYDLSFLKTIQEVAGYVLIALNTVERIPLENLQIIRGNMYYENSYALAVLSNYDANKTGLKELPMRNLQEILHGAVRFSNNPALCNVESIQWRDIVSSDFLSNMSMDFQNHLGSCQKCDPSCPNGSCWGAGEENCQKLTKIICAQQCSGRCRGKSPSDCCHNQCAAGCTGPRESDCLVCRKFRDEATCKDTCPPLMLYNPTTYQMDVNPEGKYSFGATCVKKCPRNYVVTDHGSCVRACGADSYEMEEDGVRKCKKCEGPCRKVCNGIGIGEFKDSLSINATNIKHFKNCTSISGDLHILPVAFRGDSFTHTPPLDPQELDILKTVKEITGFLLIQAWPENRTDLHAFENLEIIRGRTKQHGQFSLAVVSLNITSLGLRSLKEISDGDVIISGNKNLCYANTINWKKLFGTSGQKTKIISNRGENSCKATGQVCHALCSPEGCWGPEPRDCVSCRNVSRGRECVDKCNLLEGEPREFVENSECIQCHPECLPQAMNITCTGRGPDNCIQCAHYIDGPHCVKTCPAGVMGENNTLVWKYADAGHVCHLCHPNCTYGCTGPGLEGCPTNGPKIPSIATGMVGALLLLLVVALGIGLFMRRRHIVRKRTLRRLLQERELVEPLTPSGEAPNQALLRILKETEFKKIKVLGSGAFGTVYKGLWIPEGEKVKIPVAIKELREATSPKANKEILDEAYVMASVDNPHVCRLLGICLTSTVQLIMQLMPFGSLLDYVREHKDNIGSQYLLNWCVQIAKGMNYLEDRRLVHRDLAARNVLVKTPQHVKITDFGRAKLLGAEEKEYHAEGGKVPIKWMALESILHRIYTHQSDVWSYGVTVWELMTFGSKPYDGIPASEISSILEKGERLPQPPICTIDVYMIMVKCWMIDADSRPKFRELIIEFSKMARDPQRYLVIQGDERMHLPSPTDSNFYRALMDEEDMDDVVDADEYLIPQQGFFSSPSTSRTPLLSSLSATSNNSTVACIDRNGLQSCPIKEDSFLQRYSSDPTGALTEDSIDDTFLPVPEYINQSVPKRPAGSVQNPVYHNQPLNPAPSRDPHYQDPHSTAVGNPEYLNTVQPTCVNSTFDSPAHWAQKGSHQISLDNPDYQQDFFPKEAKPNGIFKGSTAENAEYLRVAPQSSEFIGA
Excerpt: as §2

Ba/F3 Parental = assay: Ba/F3 viability assay (CellTiter-Glo), parental; type: cell-based; settings: Mus musculus, BaF3, anti-proliferation
Excerpt: as §1

Row | SMILES | GI50 (Ba/F3 EGFR-Del19/T790M) [nM] | GI50 [1] [nM] | GI50 (Ba/F3 EGFR-Del19/C797S) [nM] | pIC50 (EGFR^L858R) | pIC50 (EGFR^L58R/T790M) | pIC50 (EGFR^L858R/T790M/C^797S) | pIC50 (Ba/F3 Parental)
1 | C[C@H]1CCOc2c(cnn2C)-c2nccc(n2)Nc2cc3c(cn2)c(-c2cccc(OCCN(C)C)c2)nn31 [(110)] | < 10 | < 10 | < 10 | > 8.00 | > 8.00 | > 8.00 | 6.00 to 7.00
2 | C[C@H]1CCOc2c(cnn2C)-c2nccc(n2)Nc2cc3c(cn2)c(-c2cccc(N4CCC(O)CC4)c2)nn31 [(111)] | < 10 | < 10 | 10 to 100 | > 8.00 | > 8.00 | > 8.00 | 6.00 to 7.00
3 | C[C@H]1CCOc2c(cnn2C)-c2nccc(n2)Nc2cc3c(cn2)c(N2CC[C@@H](O)C2)nn31 [(112)] | < 10 | < 10 | 10 to 100 | > 8.00 | > 8.00 | > 8.00 | 6.00 to 7.00
4 | C[C@H]1CCOc2c(cnn2C)-c2nccc(n2)Nc2cc3c(cn2)c(N2CC[C@H](O)C2)nn31 [(113)] | < 10 | < 10 | < 10 | > 8.00 | > 8.00 | > 8.00 | 6.00 to 7.00
5 | C[C@H]1CCOc2c(cnn2C)-c2nccc(n2)Nc2cc3c(cn2)c(-c2cn(C)cn2)nn31 [(114)] | 10 to 100 | 10 to 100 | 10 to 100 | 7.00 to 8.00 | > 8.00 | > 8.00 | 6.00 to 7.00
6 | C[C@H]1CCOc2c(cnn2C)-c2nccc(n2)Nc2cc3c(cn2)c(-c2cnn(CCCN4CCOCC4)c2)nn31 [(115)] | 10 to 100 | 10 to 100 | 10 to 100 | 7.00 to 8.00 | > 8.00 | > 8.00 | 6.00 to 7.00
7 | C[C@H]1CCOc2c(cnn2C)-c2nccc(n2)Nc2cc3c(cn2)c(-c2cnn(CCN4CCOCC4)c2)nn31 [(116)] | 10 to 100 | 10 to 100 | 10 to 100 | 7.00 to 8.00 | > 8.00 | > 8.00 | 6.00 to 7.00
8 | CCN(CC)CCn1cc(-c2nn3c4cc(ncc24)Nc2ccnc(n2)-c2cnn(C)c2OCC[C@@H]3C)cn1 [(117)] | < 10 | < 10 | 10 to 100 | > 8.00 | > 8.00 | > 8.00 | 7.00 to 8.00
9 | CC(C)N1CCN(Cc2csc(-c3nn4c5cc(ncc35)Nc3ccnc(n3)-c3cnn(C)c3OCC[C@@H]4C)n2)CC1 [(118)] | 100 to 1000 | 10 to 100 | 100 to 1000 | 7.00 to 8.00 | > 8.00 | > 8.00 | ≤ 6.00
10 | C[C@H]1CCOc2c(cnn2C)-c2nccc(n2)Nc2cc3c(cn2)c(-c2ccc(CN4CCNCC4)n2C)nn31 [(119)] | < 10 | < 10 | < 10 | > 8.00 | > 8.00 | > 8.00 | 6.00 to 7.00
11 | C[C@H]1CCOc2c(cnn2C)-c2nccc(n2)Nc2cc3c(cn2)c(-c2ccc(CN4CCOCC4)n2C)nn31 [(120)] | < 10 | < 10 | 10 to 100 | > 8.00 | > 8.00 | > 8.00 | 6.00 to 7.00
12 | C[C@H]1CCOc2c(cnn2C)-c2nccc(n2)Nc2cc3c(cn2)c(-c2ccc(CN4CCCCC4)n2C)nn31 [(121)] | < 10 | < 10 | < 10 | > 8.00 | > 8.00 | > 8.00 | 6.00 to 7.00
13 | CC(C)N1CCN(Cc2ccc(-c3nn4c5cc(ncc35)Nc3ccnc(n3)-c3cnn(C)c3OCC[C@@H]4C)n2C)CC1 [(122)] | < 10 | < 10 | < 10 | > 8.00 | > 8.00 | > 8.00 | 6.00 to 7.00
14 | C[C@H]1CCOc2c(cnn2C)-c2nccc(n2)Nc2cc3c(cn2)c(-c2ccc(CN4CCN(C5CC5)CC4)n2C)nn31 [(123)] | < 10 | < 10 | < 10 | > 8.00 | > 8.00 | > 8.00 | 6.00 to 7.00
15 | C[C@H]1CCOc2c(cnn2C)-c2nccc(n2)Nc2cc3c(cn2)c(-c2ccc(CN4CCN(C5COC5)CC4)n2C)nn31 [(124)] | < 10 | < 10 | < 10 | > 8.00 | > 8.00 | > 8.00 | 6.00 to 7.00
